Measured values from publication PMC11091526 (International Journal for Parasitology: Drugs and Drug …, 2024).

Assays:
[1] = system: N. fowleri ATCC® 30,808™ trophozoites; experiment: In vitro activity against trophozoites, alamarBlue, 48 h; assay type: cell-based, Naegleria fowleri; settings: for S.I. ATCC 30,808 (selectivity index CC50/IC50): CC50 J774A.1 / IC50 ATCC 30,808 trophozoites; for IC50 / IC90: Naegleria fowleri; for IC50: ATCC30, 48 h, read-out: N. fowleri ATCC 30,808 IC50, trophozoite stage; for IC90: ATCC30, read-out: N. fowleri ATCC 30,808 IC90
[2] = system: N. fowleri ATCC® 30,808™ cysts; experiment: microbe, parasite or virus in culture; assay type: cell-based; settings: Naegleria fowleri, ATCC30, read-out: N. fowleri ATCC 30,808 IC50, cyst stage
[3] = system: N. fowleri (ATCC® 30,808™) trophozoites; experiment: Plasma membrane permeability, SYTOX Green; assay type: cell-based, Naegleria fowleri; settings: IC90, 24 h
[4] = system: N. fowleri ATCC® 30,215™ trophozoites; experiment: In vitro activity against trophozoites, alamarBlue, 48 h; assay type: cell-based; settings: Naegleria fowleri, ATCC30, 48 h, read-out: N. fowleri ATCC 30,215 IC50
[5] = system: N. fowleri (ATCC® 30,808™) trophozoites; experiment: Mitochondrial membrane potential depolarization, JC-1; assay type: cell-based, Naegleria fowleri; settings: IC90, 24 h
[6] = system: N. fowleri (ATCC® 30,808™) trophozoites; assay type: cell-based, Naegleria fowleri; settings: trophozoites treated with IC90 for 24 h
[7] = system: N. fowleri (ATCC® 30,808™) trophozoites; experiment: Chromatin condensation, Hoechst 33,342/Propidium Iodide double staining; assay type: cell-based, Naegleria fowleri; settings: IC90, 24 h

Structure (SMILES) | S.I. ATCC 30,808 (selectivity index CC50/IC50) [1] | IC50 [2] [µM] | Plasma membrane permeability (SYTOX Green fluorescence) [3] | IC50 [1] [µM] | IC90 [1] [µM] | IC50 [4] [µM] | Mitochondrial membrane potential (JC-1 fluorescence) [5] | Inhibition of ATP synthesis in comparison to the negative control [6] [%] | Chromatin condensation (Hoechst 33,342 blue fluorescence) [7]
CCCCCCCCCCCCCCCCOP(=O)([O-])OCC[N+](C)(C)C [MILTEFOSINE, miltefosine] | 3.3 | 21.5 ± 2.62 | – | – | – | – | – | – | –
C[C@@H]1[C@H](O)[C@@H](C)/C=C/C=C/C=C/C=C/C=C/C=C/C=C/[C@H](O[C@@H]2O[C@H](C)[C@@H](O)[C@H](N)[C@@H]2O)C[C@@H]2O[C@](O)(C[C@@H](O)C[C@@H](O)[C@H](O)CC[C@@H](O)C[C@@H](O)CC(=O)O[C@H]1C)C[C@H](O)[C@H]2C(=O)O [AMPHOTERICIN B, amphotericin B] | ≥1650 | 0.53 ± 0.03 | emitted green fluorescence | 0.12 ± 0.03 | 0.35 ± 0.02 | 0.16 ± 0.02 | green fluorescence emission was also shown | > 98 | emission of blue fluorescence was observed
CCCN1CCC=C(c2cc(-c3ccc(C)cc3)no2)C1 [PD-144418] | 10.35 | 10.4 ± 2.3 | – | 4.71 ± 0.95 | 17.4 ± 3.28 | 6.48 ± 2.83 | – | – | –
CC(C)N1CCN(c2ccc(OCC3COC(Cn4cncn4)(c4ccc(Cl)cc4Cl)O3)cc2)CC1 (stereo not drawn) [TERCONAZOLE, terconazole] | 22.99 | 2.46 ± 0.28 | – | 3.68 ± 0.61 | 30.9 ± 2.38 | 0.81 ± 0.49 | – | – | –
